% of control, % of inhibition and pXC50 data for seven compounds are collected here from ChEMBL document CHEMBL5465560, “Selectivity Literature for EUbOPEN Chemogenomic Library” (2024).

Assay [1] addresses T1, Mitogen-activated protein kinase kinase kinase 3 (Homo sapiens) (UniProt Q99759).
T1 sequence (whole entry): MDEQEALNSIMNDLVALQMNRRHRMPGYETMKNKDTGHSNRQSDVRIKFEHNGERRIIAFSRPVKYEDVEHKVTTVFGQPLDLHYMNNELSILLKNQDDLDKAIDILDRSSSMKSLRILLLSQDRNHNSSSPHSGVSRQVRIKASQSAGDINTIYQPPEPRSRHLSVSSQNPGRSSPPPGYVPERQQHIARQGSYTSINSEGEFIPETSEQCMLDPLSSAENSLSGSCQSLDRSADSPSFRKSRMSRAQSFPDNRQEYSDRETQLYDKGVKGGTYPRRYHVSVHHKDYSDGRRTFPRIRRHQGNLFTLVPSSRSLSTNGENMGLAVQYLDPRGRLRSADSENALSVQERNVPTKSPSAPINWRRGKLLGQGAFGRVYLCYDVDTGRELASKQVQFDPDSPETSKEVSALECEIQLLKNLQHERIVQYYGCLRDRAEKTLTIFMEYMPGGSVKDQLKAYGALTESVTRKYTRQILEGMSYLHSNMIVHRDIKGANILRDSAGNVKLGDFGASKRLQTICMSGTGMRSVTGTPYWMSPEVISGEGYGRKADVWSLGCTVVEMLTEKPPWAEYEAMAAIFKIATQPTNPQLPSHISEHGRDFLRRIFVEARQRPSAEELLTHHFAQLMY
The assay can be described thus: Selectivity interaction (Ambit KINOMEscan and KiNATiv profiling in Jurkat cells) EUB0000090b MAP3K3. The settings on record: at 1 µM. In kind it is cell-based.

The target in assay [2] is RAC-gamma serine/threonine-protein kinase (Homo sapiens, UniProt Q9Y243). The assay can be described thus: Selectivity interaction (SelectScreen profiling (Invitrogen)) EUB0000607a AKT3. The settings on record: at 2 µM.
The target in assay [3] is Dual specificity testis-specific protein kinase 1 (Homo sapiens) (UniProt Q15569). Briefly: Selectivity interaction (KinomeScan (DiscoverX)) EUB0000655a TESK1. The settings on record: at 10 µM.
The target of assay [4] is T2, Cytoplasmic tyrosine-protein kinase BMX (Homo sapiens) (UniProt P51813).
T2 sequence (whole entry): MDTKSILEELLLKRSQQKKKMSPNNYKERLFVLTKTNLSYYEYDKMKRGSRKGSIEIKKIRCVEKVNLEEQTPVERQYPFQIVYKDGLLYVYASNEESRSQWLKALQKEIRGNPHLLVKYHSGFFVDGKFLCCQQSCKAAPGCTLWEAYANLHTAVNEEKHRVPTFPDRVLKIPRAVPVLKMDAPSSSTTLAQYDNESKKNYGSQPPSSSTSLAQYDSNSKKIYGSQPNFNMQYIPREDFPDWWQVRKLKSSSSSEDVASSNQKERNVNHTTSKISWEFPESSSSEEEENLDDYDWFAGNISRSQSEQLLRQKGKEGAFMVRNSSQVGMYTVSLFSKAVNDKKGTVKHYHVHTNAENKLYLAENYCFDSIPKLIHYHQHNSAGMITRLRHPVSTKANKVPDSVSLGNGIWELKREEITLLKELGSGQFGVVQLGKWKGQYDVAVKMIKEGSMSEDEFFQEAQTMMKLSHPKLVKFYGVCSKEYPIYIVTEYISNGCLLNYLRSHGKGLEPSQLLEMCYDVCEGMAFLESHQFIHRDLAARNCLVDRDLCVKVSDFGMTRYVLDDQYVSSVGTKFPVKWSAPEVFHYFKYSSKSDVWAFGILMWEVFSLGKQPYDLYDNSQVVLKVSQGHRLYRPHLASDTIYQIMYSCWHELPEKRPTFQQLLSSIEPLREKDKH
The assay can be described thus: Selectivity interaction (KinomeScan (DiscoverX)) EUB0001079a BMX. The settings on record: at 1 µM.

The target in assay [5] is 5-hydroxytryptamine receptor 1B (Homo sapiens) (UniProt P28222). The assay can be described thus: Selectivity interaction (Panel of kinases, GPCRs, ion channels and transporters (enzymatic assay)) EUB0000266bCl HTR1B.
Assay [6] deals with Cyclin-dependent kinase 20 (Homo sapiens) (UniProt Q8IZL9). The assay can be described thus: Selectivity interaction (ActivX KiNativ screen (kinase selectivity in THP-1 cell lysates)) EUB0000639a CDK20. The settings on record: lysate. In kind it is subcellular.
Assay [7] addresses T3, Ephrin type-A receptor 1 (Homo sapiens) (UniProt P21709).
T3 sequence (whole entry): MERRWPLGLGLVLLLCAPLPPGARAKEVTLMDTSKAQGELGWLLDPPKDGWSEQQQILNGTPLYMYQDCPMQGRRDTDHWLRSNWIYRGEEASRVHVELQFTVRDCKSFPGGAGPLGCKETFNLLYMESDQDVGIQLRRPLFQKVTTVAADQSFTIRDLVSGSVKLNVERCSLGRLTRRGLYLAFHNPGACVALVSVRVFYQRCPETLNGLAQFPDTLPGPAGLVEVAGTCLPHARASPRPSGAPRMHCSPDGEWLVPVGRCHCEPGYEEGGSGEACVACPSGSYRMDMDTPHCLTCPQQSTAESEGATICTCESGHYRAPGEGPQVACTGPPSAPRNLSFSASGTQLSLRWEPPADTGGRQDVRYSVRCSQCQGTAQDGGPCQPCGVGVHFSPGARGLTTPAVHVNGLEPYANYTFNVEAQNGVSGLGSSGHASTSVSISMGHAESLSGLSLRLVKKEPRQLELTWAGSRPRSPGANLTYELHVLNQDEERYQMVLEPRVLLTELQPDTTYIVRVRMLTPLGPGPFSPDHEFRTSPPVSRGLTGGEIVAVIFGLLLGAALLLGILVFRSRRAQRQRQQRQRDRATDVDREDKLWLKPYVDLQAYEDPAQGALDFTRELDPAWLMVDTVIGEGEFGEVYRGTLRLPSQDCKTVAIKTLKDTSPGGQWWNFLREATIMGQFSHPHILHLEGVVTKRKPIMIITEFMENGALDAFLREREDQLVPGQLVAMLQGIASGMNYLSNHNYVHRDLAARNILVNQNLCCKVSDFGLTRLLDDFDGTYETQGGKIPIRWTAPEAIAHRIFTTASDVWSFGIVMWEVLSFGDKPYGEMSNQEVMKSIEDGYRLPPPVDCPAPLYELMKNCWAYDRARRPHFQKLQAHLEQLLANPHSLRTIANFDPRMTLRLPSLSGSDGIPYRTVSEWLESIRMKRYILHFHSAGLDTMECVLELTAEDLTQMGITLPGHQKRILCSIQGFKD
Briefly: Selectivity interaction (KinomeScan (DiscoverX)) EUB0000092b EPHA1. The settings on record: at 10 µM.

Each structure is given as a SMILES string. Where only a bound is given, the exact number is not on record here.

Sequence of Cyclin-dependent kinase 20 (Homo sapiens) (Q8IZL9 whole entry): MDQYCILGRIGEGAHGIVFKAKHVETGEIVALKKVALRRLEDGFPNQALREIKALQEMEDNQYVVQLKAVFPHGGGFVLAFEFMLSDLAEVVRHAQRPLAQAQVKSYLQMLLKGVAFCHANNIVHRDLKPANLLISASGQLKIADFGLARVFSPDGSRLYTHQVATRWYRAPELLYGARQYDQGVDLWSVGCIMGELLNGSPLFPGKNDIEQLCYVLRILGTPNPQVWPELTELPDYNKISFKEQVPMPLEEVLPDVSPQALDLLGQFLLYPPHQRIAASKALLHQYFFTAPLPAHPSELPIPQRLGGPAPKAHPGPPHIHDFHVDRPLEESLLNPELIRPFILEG
Sequence of RAC-gamma serine/threonine-protein kinase (Q9Y243 whole entry): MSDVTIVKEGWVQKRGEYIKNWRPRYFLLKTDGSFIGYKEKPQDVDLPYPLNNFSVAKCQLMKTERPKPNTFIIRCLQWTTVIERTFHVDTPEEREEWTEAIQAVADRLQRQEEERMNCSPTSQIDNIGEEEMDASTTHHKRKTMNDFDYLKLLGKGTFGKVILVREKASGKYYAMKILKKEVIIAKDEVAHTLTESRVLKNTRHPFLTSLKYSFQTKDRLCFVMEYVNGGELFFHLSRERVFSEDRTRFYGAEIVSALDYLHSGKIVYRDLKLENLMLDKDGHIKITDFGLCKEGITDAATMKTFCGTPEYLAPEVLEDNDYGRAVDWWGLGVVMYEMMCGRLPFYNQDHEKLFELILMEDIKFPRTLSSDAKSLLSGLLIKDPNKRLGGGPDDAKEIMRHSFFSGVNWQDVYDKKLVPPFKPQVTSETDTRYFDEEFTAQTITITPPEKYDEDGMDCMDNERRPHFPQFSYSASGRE
Sequence of Dual specificity testis-specific protein kinase 1 (Homo sapiens) (Q15569 whole entry, looked up): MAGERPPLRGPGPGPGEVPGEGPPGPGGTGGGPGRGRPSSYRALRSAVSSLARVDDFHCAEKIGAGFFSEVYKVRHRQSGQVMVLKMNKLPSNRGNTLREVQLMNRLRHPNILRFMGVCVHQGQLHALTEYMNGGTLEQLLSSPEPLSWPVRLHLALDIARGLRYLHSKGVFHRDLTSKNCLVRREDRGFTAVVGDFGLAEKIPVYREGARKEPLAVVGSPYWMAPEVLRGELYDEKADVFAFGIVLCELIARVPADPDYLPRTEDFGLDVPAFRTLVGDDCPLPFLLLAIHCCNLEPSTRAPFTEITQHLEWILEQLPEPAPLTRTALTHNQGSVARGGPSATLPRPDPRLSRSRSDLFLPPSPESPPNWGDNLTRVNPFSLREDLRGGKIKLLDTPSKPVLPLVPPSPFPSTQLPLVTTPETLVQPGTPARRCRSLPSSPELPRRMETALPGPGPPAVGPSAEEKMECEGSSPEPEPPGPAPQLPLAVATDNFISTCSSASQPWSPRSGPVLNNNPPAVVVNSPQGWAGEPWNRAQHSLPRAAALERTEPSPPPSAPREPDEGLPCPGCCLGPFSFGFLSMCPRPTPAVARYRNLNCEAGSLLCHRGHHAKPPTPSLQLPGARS
Sequence of 5-hydroxytryptamine receptor 1B (Homo sapiens) (P28222 whole entry): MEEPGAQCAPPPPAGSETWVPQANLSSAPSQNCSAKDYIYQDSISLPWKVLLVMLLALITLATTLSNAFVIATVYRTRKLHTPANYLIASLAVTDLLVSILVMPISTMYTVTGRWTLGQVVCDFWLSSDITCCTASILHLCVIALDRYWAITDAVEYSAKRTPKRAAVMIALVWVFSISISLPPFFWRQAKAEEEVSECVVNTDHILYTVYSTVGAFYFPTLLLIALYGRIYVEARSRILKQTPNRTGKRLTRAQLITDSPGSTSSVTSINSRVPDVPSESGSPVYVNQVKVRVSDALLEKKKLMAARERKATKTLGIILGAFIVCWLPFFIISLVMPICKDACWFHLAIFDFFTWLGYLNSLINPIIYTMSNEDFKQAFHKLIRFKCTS

Regarding `CN(C)C/C=C/C(=O)Nc1ccc(C(=O)N2CCCC(Nc3ncc(Cl)c(-c4c[nH]c5ccccc45)n3)C2)cc1` (stereo unspecified), the % of control in assay [1] was 90%.
Take `CNC(=O)Nc1ccc(-c2nc(N3CC4CCC(C3)O4)c3cnn(C4CCC5(CC4)OCCO5)c3n2)cc1`: the % of inhibition in assay [2] stood at 2%.
`CN(C)CCOc1ccc(-c2nc(-c3ccncc3)c(-c3ccc4c(c3)CC/C4=N\O)[nH]2)cc1` displayed a % of control in assay [3] of 76%.
Turning to `Nc1cnc(N2CCc3cc(S(=O)(=O)Nc4c(F)cc(Cl)cc4F)cc(N4CCCC4=O)c32)nc1` [TP-020n], the % of control in assay [4] is 100%.
Turning to `CCn1c(-c2nc3cc(C(=O)N4CCCC(N)C4)ccc3n2C)cc2ccccc21` (stereo unspecified), the pXC50 in assay [5] is below 4.5 M.
Consider `CC[C@@H]1[C@H](F)C(=O)N[C@@H]1COc1nccc2cc(C(N)=O)c(OC)cc12` [ZIMLOVISERTIB], for which the % of inhibition was 6.4% in assay [6] (at 0.01 µM); -8.7% in assay [6] (at 0.04 µM); -2% in assay [6] (at 0.2 µM); -0.8% in assay [6] (at 1 µM); -1.4% in assay [6] (at 5 µM).
Compound `CCC(=O)N1CCN(c2ccc(-n3c(=O)ccc4cnc5ccc(-c6cnc7ccccc7c6)cc5c43)cc2C(F)(F)F)CC1` had a % of control in assay [7] of 62%.
